Key:
B16 murine melanoma [1] = experiment: MTT cell growth inhibition, B16 melanoma cells; format: cell-based; conditions: 3-6 days incubation
Description: (§1) The following cell culture tests were performed to test the toxicity of benzimidazole derivative compounds of the present invention on colon and melanoma tumor cells. The viability of the cells were tested by looking at MTT (3-[4,5-dimethylthiazol-2-yl]-2,5-diphenyltetrazolium bromide) reduction. MTT assay is a well known measure of cell viability.
(§2) The colon tumor cells (HT29) and the melanoma cells (B16 murine melanoma) were seeded (1000-2000 cells) into each well of a 96-well microtiter plate and allowed to grow. Twenty-four hours later, increasing concentrations of each benzimidazole derivative were added to the plates and the cells were allowed to incubate for 3-6 days in the presence of the drugs. MTT reagent was then added to the wells and allowed to incubate for 4 hours at 37° C., after which the formazan metabolite was solubilized with acidic isopropanol and the absorbance was read. Experimental controls included blank wells to which no cells were added (zero point of formazan absorbance) and control wells to which no drug was added (highest level of formazan absorbance). Each drug concentration was tested in duplicate and the resulting average absorbance was plotted against drug concentration using the EZ-ED50 computer program on a personal computer interfaced to the microtiter plate reader. […] The IC50 value is then derived from this equation by EZ-ED50.

colon tumor cells (HT29) = experiment: MTT cell growth inhibition, HT29 colon tumor cells; format: cell-based; conditions: 3-6 days incubation, read-out: IC50 Human Colon Carcinoma
Description: as §1, §2

Tubulin = experiment: Microtubule inhibition assay (tubulin polymerization, absorbance at 350 nm); format: biochemical, bovine; conditions: compound at 2 μM, after 30 minutes
Description: The benzimidazole derivatives of this invention were evaluated for their ability to inhibit formation of microtubules, following the procedure of Luduena, R. F. and M. C. […] Microtubule polymerization was followed by performing the reaction in a cuvette and monitoring UV absorbance at 350 nm, allowing direct visualization of the time course of the polymerization.

B16 murine melanoma [2] = experiment: In vivo B16 murine melanoma tumor model; parameters: species or system B6D2F1 mice; conditions: qd × 5; for T/C (%): mean survival treated/control; for # of Survivors: survived at least 60 days
Description: B6D2F1 mice received interperitoneally (i.p.) inocula of B16 murine melanoma brei prepared from B16 tumors growing s.c. in mice (Day 0). On Day 1, mice were randomized into groups, with 20 mice in the control group and 10 mice in each treated group (except there were 8 mice in selected groups given compound 3-13. Treatment with drugs or vehicle control was started on Day 1.
The mean survival times of all groups were calculated and results were expressed as mean survival of treated mice/mean survival of control mice (T/C)×100%. A “T/C” value of 150 means that the mice in the treated group lived 50% longer than those of the control group; this is sometimes referred to as the increase in life span, or ILS value.
Mice that survived for at least 60 days were considered to be long-term survivors, or cures, in the B16 model. The universally accepted cut-off for activity in this model, which has been used for years by the NCI, is T/C=125. Conventional use of B16 over the years has set the following levels of activity:
T/C>300, with long-term survivors=excellent, curative activity.

SMILES: C=CCCOC(=O)c1ccc2nc(NC(=O)OC)[nH]c2c1 [3-6]
- IC50 (B16 murine melanoma [1]): 44 nM
- IC50 (colon tumor cells (HT29)): 7.6 nM
- Tubulin Polymerization Inhibition, % Inhibition (Tubulin): 12%
- # of Toxic Deaths (B16 murine melanoma [2]; 10 mg/kg/i.v): 0
- Weight Change (Day 12) (B16 murine melanoma [2]; 10 mg/kg/i.v): +8.7%
- T/C (%) (B16 murine melanoma [2]; 10 mg/kg/i.v): 107%
- # of Survivors (B16 murine melanoma [2]; 10 mg/kg/i.v): 0
- # of Toxic Deaths (B16 murine melanoma [2]; 20 mg/kg/i.v): 0
- Weight Change (Day 12) (B16 murine melanoma [2]; 20 mg/kg/i.v): +6.5%
- T/C (%) (B16 murine melanoma [2]; 20 mg/kg/i.v): 99%
- # of Survivors (B16 murine melanoma [2]; 20 mg/kg/i.v): 0
- # of Toxic Deaths (B16 murine melanoma [2]; 50 mg/kg/i.p): 0
- Weight Change (Day 12) (B16 murine melanoma [2]; 50 mg/kg/i.p): +9.4%
- T/C (%) (B16 murine melanoma [2]; 50 mg/kg/i.p): 119%
- # of Survivors (B16 murine melanoma [2]; 50 mg/kg/i.p): 0
- # of Toxic Deaths (B16 murine melanoma [2]; 100 mg/kg/i.p): 0
- Weight Change (Day 12) (B16 murine melanoma [2]; 100 mg/kg/i.p): +8.9%
- T/C (%) (B16 murine melanoma [2]; 100 mg/kg/i.p): 118%
- # of Survivors (B16 murine melanoma [2]; 100 mg/kg/i.p): 0

SMILES: COC(=O)Nc1nc2ccc(C(=O)OCCCCCl)cc2[nH]1 [Cpd. No. 3-1]
- IC50 (B16 murine melanoma [1]): 11 nM
- IC50 (colon tumor cells (HT29)): 10 nM
- Tubulin Polymerization Inhibition, % Inhibition (Tubulin): 28%
- # of Toxic Deaths (B16 murine melanoma [2]; 10 mg/kg/i.v): 0
- Weight Change (Day 12) (B16 murine melanoma [2]; 10 mg/kg/i.v): +9.3%
- T/C (%) (B16 murine melanoma [2]; 10 mg/kg/i.v): 97%
- # of Survivors (B16 murine melanoma [2]; 10 mg/kg/i.v): 0
- # of Toxic Deaths (B16 murine melanoma [2]; 20 mg/kg/i.v): 0
- Weight Change (Day 12) (B16 murine melanoma [2]; 20 mg/kg/i.v): +6.3%
- T/C (%) (B16 murine melanoma [2]; 20 mg/kg/i.v): 98%
- # of Survivors (B16 murine melanoma [2]; 20 mg/kg/i.v): 0
- # of Toxic Deaths (B16 murine melanoma [2]; 50 mg/kg/i.p): 0
- Weight Change (Day 12) (B16 murine melanoma [2]; 50 mg/kg/i.p): +7.5%
- antitumor activity level by NCI criteria (B16 murine melanoma [2]; 50 mg/kg/i.p): weak activity (T/C=125-150, weak activity)
- T/C (%) (B16 murine melanoma [2]; 50 mg/kg/i.p): 132%
- # of Toxic Deaths (B16 murine melanoma [2]; 100 mg/kg/i.p): 0
- Weight Change (Day 12) (B16 murine melanoma [2]; 100 mg/kg/i.p): +12.9%
- T/C (%) (B16 murine melanoma [2]; 100 mg/kg/i.p): 108%
- # of Survivors (B16 murine melanoma [2]; 100 mg/kg/i.p): 0

SMILES: COC(=O)Nc1nc2ccc(C(=O)OCC(C)CC(C)(C)C)cc2[nH]1 (stereo not shown) [3-13]
- IC50 (B16 murine melanoma [1]): 4.6 nM
- IC50 (colon tumor cells (HT29)): 19 nM
- Tubulin Polymerization Inhibition, % Inhibition (Tubulin): 28%
- # of Toxic Deaths (B16 murine melanoma [2]; 2.5 mg/kg/i.v): 0
- Weight Change (Day 12) (B16 murine melanoma [2]; 2.5 mg/kg/i.v): +11.7%
- T/C (%) (B16 murine melanoma [2]; 2.5 mg/kg/i.v): 92%
- # of Survivors (B16 murine melanoma [2]; 2.5 mg/kg/i.v): 0
- # of Toxic Deaths (B16 murine melanoma [2]; 5 mg/kg/i.v): 7
- Weight Change (Day 12) (B16 murine melanoma [2]; 5 mg/kg/i.v): +3.6%
- T/C (%) (B16 murine melanoma [2]; 5 mg/kg/i.v): 91%
- # of Survivors (B16 murine melanoma [2]; 5 mg/kg/i.v): 0
- # of Toxic Deaths (B16 murine melanoma [2]; 50 mg/kg/i.p): 0
- Weight Change (Day 12) (B16 murine melanoma [2]; 50 mg/kg/i.p): +12.5%
- T/C (%) (B16 murine melanoma [2]; 50 mg/kg/i.p): 94%
- # of Survivors (B16 murine melanoma [2]; 50 mg/kg/i.p): 0
- # of Toxic Deaths (B16 murine melanoma [2]; 100 mg/kg/i.p): 0
- Weight Change (Day 12) (B16 murine melanoma [2]; 100 mg/kg/i.p): +9.8%
- T/C (%) (B16 murine melanoma [2]; 100 mg/kg/i.p): 75%
- # of Survivors (B16 murine melanoma [2]; 100 mg/kg/i.p): 0

SMILES: CCC(C)COC(=O)c1ccc2nc(NC(=O)OC)[nH]c2c1 (stereo not shown) [3-19]
- IC50 (B16 murine melanoma [1]): 48 nM
- IC50 (colon tumor cells (HT29)): 12 nM
- Tubulin Polymerization Inhibition, % Inhibition (Tubulin): 28%
- # of Toxic Deaths (B16 murine melanoma [2]; 20 mg/kg/i.v): 0
- Weight Change (Day 12) (B16 murine melanoma [2]; 20 mg/kg/i.v): +7.8%
- T/C (%) (B16 murine melanoma [2]; 20 mg/kg/i.v): 106%
- # of Survivors (B16 murine melanoma [2]; 20 mg/kg/i.v): 0
- # of Toxic Deaths (B16 murine melanoma [2]; 40 mg/kg/i.v): 6
- Weight Change (Day 12) (B16 murine melanoma [2]; 40 mg/kg/i.v): +2.5%
- T/C (%) (B16 murine melanoma [2]; 40 mg/kg/i.v): 73%
- # of Survivors (B16 murine melanoma [2]; 40 mg/kg/i.v): 0
- # of Toxic Deaths (B16 murine melanoma [2]; 50 mg/kg/i.p): 0
- Weight Change (Day 12) (B16 murine melanoma [2]; 50 mg/kg/i.p): +9.6%
- T/C (%) (B16 murine melanoma [2]; 50 mg/kg/i.p): 119%
- # of Survivors (B16 murine melanoma [2]; 50 mg/kg/i.p): 0
- # of Toxic Deaths (B16 murine melanoma [2]; 100 mg/kg/i.p): 0
- Weight Change (Day 12) (B16 murine melanoma [2]; 100 mg/kg/i.p): +10.8%
- T/C (%) (B16 murine melanoma [2]; 100 mg/kg/i.p): 124%
- # of Survivors (B16 murine melanoma [2]; 100 mg/kg/i.p): 0

From patent US6864275B1, “Compounds and methods for use thereof in the treatment of cancer” (UAF Technologies and Research, LLC, priority 1997, dated 2005)
